Assay results reported in US4868195A, “Novel enolamides, pharmaceutical compositions and methods of use thereof for activity as modulators of the arachidonic acid cascade” (Warner-Lambert Company, priority 1988, dated 1989).

What was measured:
[1] = target: T1, human leukocyte 5-lipoxygenase (Homo sapiens, UniProt P09917); experiment: 5-lipoxygenase inhibition in human leukocytes, 5-HETE formation (5LOA; methods 5LOA1 and 5LOA2); format: cell-based; details: 5-HETE formation, human leukocytes; read-out: Concentration (M) for 50.0 % Inhibition, IC (5LOA)
T1 construct: endogenous in cells; host or cells: intact leukocytes isolated from human blood
T1 sequence (P09917 1-674): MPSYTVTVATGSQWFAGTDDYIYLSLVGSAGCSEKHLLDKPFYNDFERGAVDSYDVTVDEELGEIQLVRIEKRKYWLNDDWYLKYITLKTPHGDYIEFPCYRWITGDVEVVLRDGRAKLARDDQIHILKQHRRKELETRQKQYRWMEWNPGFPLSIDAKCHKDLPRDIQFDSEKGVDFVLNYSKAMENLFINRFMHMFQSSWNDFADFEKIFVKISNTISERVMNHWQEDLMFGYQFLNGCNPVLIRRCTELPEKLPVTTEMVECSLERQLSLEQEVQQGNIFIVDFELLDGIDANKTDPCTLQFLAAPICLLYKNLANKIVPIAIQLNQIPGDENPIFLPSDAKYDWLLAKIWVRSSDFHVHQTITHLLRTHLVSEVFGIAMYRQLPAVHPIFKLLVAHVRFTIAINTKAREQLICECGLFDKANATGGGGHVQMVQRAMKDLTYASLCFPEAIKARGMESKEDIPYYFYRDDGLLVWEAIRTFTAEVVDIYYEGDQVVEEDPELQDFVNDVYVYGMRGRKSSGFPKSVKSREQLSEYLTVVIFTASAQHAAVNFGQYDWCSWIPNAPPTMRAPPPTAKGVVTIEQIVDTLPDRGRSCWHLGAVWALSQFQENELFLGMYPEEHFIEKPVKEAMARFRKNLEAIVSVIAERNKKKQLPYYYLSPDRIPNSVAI
From the text: To Evaluate the Effect of Each Compounds as a 5-Lipoxygenase Inhibitor in Comparison to Standard Reference Agents in Human Leukocytes (5LOA1)
The purpose of this assay is to evaluate the activity of each compound as an inhibitor of human leukocyte 5-lipoxygenase.
Arachidonic acid and calcium ionophore A23187 are obtained from Sigma (St. Louis, MO). Silica gel plates, GF are obtained from Analtech (Newark, DE). Arachidonic acid, (1-^14 C) and 5-HETE (^3 H), 5 (S)-hydroxy-6-trans,8,11,14-cis eicosatetraenoic acid, are obtained from New England Nuclear (Boston, MA). Six percent Dextran-70 in 0.9% NaCl is obtained from Cutter Labs (Berkeley, CA).
Preparation of Leukocytes
Fresh blood from normal adult men who had not received any drugs for at least the previous five days is obtained by the Community Research Clinic (WL/PD) using venipuncture and collected into heparinized vacuotainer tubes. To every 100 ml of pooled blood is added 25 ml of dextran solution (6% dextran -70 in 0.9% sodium chloride containing 3% dextrose) and this is mixed gently in a plastic cylinder. The mixture is left to stand at room temperature for at least 90 minutes. The upper layer which is rich in leukocytes and platelets is then carefully decanted into 50 ml plastic tubes and centrifuged at about 100×g for eight minutes in an IEC centrifuge and rotor number 269 (about 600 rpm). The supernatant fluid is discarded and the pellet is resuspended in 10 ml of 0.87% ammonium chloride for exactly two minutes. This procedure is to lyse completely contaminating red blood cells. Leukocytes are then separated by centrifugation for ten minutes. The pellet is washed three times by suspension in 20 ml PBS (sodium chloride, 7.1 g; Na2 HPO4, 1.15 g; KH2 PO4, 0.2 g, and KCl, 0.2 g/L) and centrifuged as before. The final pellet is suspended in PBS containing 0.87 mM CaCl2. Viability of the cells is then checked using trypan blue exclusion method and is found to be over 90%.
5-Lipoxygenase Enzyme Assay
Leukocyte cells in suspension (0.98 ml) are incubated with or without test compounds for five minutes at 37° C. in a shaking water bath. At this time a 17 μl mixture is prepared per 1 ml of cell suspension: 100 mM arachidonic acid, 1 μl, 0.05 μCi ^14 C-arachidonic acid in 5 μl; 1 mM calcium ionophore A23187, 10 μl (1). This mixture is added and the incubation continued for five minutes. The reaction is stopped by adding four volumes of absolute ethanol and the mixture is kept in ice for 30 minutes. The floculated precipitate is separated by centrifugation at about 37,000×g for 20 minutes (Beckman Instruments rotor number 40). The alcohol extract is taken to dryness under a stream of nitrogen and the residue is dissolved in 100-200 μl absolute ethanol. At the time any turbidity is removed by centrifugation. An aliquot (25-50 μl) is applied onto 20×20 cm silica gel TLC plate and developed using the following solvent system: diethyl ether, petroleum ether (2040° C.), acetic acid (50:50:1 v/v). Zones of 1 cm apart are scraped from the TLC plate and transferred to mini-vials. Methanol (0.5 ml) is added to dissolve the radioactivity adsorbed to the silica gel and scintillation fluid (H. P., Beckman), 5 ml is then added and vials are counted in a liquid scintillation counter. A sample of ^3 H-5-HETE is applied and used for the identification of the formed 5-HETE.
Total radioactivity in the test as well as the control samples are normalized and the amount of 5-HETE present is calculated accordingly.
IC50 values are defined as the concentrations of test agents which caused a 50% inhibition of the formation of 5-HETE as compared to control and are determined by inspection of the concentration-response curves.
5-Lipoxygenase Assay Using Isolated Human Leukocytes (5LOA2)
The formation of 5-HETE in human leukocytes is considered a measure of 5-lipoxygenase activity. The protocol is described in the following. […]

[2] = system: Human Leukocyte Lipoxygenase; experiment: Human Leukocyte Lipoxygenase Assay (LDA-H); format: biochemical; details: Concentration 2.50 E -5 M
Summary of the method: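 Enzyme from acetone-pentane powder of human buffy-coat leukocytes, extracted in 0.1M Tris pH 7.4. Compound preincubated 5 min with enzyme, then reaction started with arachidonic or linoleic acid (100 μM or 1.0 μM) and followed at 234 nm (conjugated diene) at 24° C. IC50 is molar concentration halving control rate.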

- IC50 [1]: 5e-07 M
- % Inhibition (LDAH) [2]: 0.0%
Structure (SMILES): O=C(Nc1ccc(CCc2ccc(O)c(O)c2)cc1)C1Oc2c(n(-c3ccccc3)c3ccc(O)cc23)C1=O (centres unmarked) [Example 163, 2H-Furo[3,2-b]indole-2-carboxamide, N-[4-[2-(3,4-dihydroxyphenyl)ethyl]phenyl]-3,4-dihydro-7-hydroxy-3-oxo-4-phenyl]
